Measurements taken from patent US20100022584A1, “Modulation of Glutamine Synthetase Activity” (priority 2006, published 2010).
Substitutions are numbered along the chain they refer to. “Also recorded” adds a separate entry of the source.

Experiments:
[1] = target: T1, glutamine synthetase mutant S53A (Escherichia coli, UniProt P0A9C5, S54A); experiment: HPLC forward-reaction glutamine synthetase assay with serine protease inhibitors; type: biochemical, E. coli; settings: 1 mM inhibitor; for inhibition of the enzyme (in words): HPLC assays; for % Reduction in ADP-based Specific Activity / % Reduction in Glutamine-based Specific Activity: 60 min pre-incubation, vs no-inhibitor control, positive = activity increased; for % Conversion: glutamine-based divided by ADP-based specific activity
T1 construct: made in house; host or cells: E. coli YMC11 (glutamine synthetase auxotroph), pBluescript II SK+
T1 sequence (P0A9C5 2-469 S54A limits assumed): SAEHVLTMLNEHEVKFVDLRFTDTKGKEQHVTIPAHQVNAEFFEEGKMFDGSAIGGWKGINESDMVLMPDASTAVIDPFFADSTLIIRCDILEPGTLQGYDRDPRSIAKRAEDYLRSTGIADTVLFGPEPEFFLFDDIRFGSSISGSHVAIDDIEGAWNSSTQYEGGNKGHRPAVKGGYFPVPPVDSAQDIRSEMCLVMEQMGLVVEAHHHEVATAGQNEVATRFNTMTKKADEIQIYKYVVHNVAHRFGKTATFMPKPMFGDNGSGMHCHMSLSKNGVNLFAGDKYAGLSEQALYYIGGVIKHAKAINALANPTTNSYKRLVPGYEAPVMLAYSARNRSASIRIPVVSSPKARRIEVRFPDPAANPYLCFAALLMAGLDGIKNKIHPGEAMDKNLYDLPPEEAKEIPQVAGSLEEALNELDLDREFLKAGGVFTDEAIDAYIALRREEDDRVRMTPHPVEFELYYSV

[2] = target: T2, glutamine synthetase mutant S52A S53A (Escherichia coli, UniProt P0A9C5, S53A/S54A); experiment: as above; type: biochemical, E. coli; settings: 1 mM inhibitor; for % Reduction in ADP-based Specific Activity / % Reduction in Glutamine-based Specific Activity / % Conversion: S52A S53A; for % Reduction in ADP-based Specific Activity / % Reduction in Glutamine-based Specific Activity: 60 min pre-incubation, vs no-inhibitor control, positive = activity increased; for % Conversion: glutamine-based divided by ADP-based specific activity
T2 construct: made in house; host or cells: E. coli YMC11 (glutamine synthetase auxotroph), pBluescript II SK+
T2 sequence (P0A9C5 2-469 S53A/S54A limits assumed): T1 sequence (P0A9C5 2-469 S54A limits assumed) with S52A

Row | Structure (SMILES) | inhibition of the enzyme (in words) [1] | % Reduction in ADP-based Specific Activity ([1]; Mg assay) [%] | % Reduction in Glutamine-based Specific Activity ([1]; Mg assay) | % Conversion ([1]; Mg assay) [%] | % Reduction in ADP-based Specific Activity ([1]; Mn assay) | % Reduction in Glutamine-based Specific Activity ([1]; Mn assay) [%] | % Conversion ([1]; Mn assay) [%] | % Reduction in ADP-based Specific Activity ([2]; Mg assay) [%] | % Reduction in Glutamine-based Specific Activity ([2]; Mg assay) [%] | % Conversion ([2]; Mg assay) [%] | % Reduction in ADP-based Specific Activity ([2]; Mn assay) [%] | % Reduction in Glutamine-based Specific Activity ([2]; Mn assay) [%] | % Conversion ([2]; Mn assay) [%] | inhibition of the enzyme (in words) ([2]; S52A S53A (double serine mutant), HPLC assays)
1 | O=S(=O)(F)Cc1ccccc1 [PMSF] | found to inhibit | −17.31 | +6.90% | 66 | +46.95% | −22.73 | 61 | −23.74 | −23.24 | 82 | −13.56 | −16.92 | 85 | did not significantly inhibit; also recorded: not significantly inhibited
2 | NCCc1ccc(S(=O)(=O)F)cc1 [AEBSF] | appeared to cause inhibition | −39.50 | −1.70% | 83 | −15.43% | −15.19 | 115 | −41.91 | −17.82 | 115 | −16.20 | −7.69 | 98 | –
